Source: patent US8691799B2, “Materials and methods for treatment of cancer and identification of anti-cancer compounds” (priority 2001, dated 2014)

Tests used:
[1] = system: STAT3-dependent pLucTKS3 luciferase reporter; assay: STAT3-dependent luciferase reporter assay in v-Src/NIH 3T3 fibroblasts; type: cell-based, murine; settings: 10 μM, 24-48 hr
Excerpt: DNA Binding and Transcription. The STAT3 reporter, pLucTKS3, driving expression of firefly luciferase has been previously described (Turkson, J. et al. Mol. Cell Biol., 1999, 19:7519-7528). The pLucTKS3 plasmid harbors seven copies of a sequence corresponding to the STAT3-specific binding site in the promoter of the human C-reactive protein gene (Zhang, D. et al. J. Biol. Chem., 1996, 271:9503-9509). The STAT3-independent plasmid, pRLSRE, contains two copies of the serum response element (SRE) from the c-fos promoter (Yamauchi, K. et al. J. Biol. Chem., 1993, 268:14597-14600), subcloned into renilla luciferase reporter, pRL-null (Promega Corporation, Madison, Wis.).
Transfection and Generation of Stable Clones. […]
Preparation of Cytosolic Extracts. […] Cells were resuspended in 0.4 ml of low-salt HEPES buffer (10 mM HEPES, pH 7.8, 10 mM KCl, 0.1 mM EGTA, 0.1 mM EDTA, 1 mM PMSF, and 1 mM DTT) for 15 min, lysed by the addition of 20 μl of 10% NP-40, and centrifuged (10,000×g, 30 sec, 4° C.) to obtain the cytosolic supernatant, which was used for luciferase assays (Promega Corporation) measured with a luminometer.

[2] = personal communication; cited from earlier work
phosphotyrosine STAT3 = assay: Cytoblot screening for phospho-STAT3 inhibition in v-Src-transformed NIH 3T3 cells; type: cell-based, murine; settings: 10 μM, 4 hr
Procedure: Cytoblot Screening for Phospho-STAT3 Inhibition. NIH 3T3 cells stably transfected with v-Src or NIH 3T3 vector control cells (Turkson, J. et al. Mol. Cell Biol., 1999, 19:7519-7528) were plated into sterile, opaque, 96-well tissue culture plates at 25,000 cells/well. After overnight growth at 37° C., the cells were treated for 4 hr in the presence of either vehicle control or 10 μM of NCI Diversity Set compounds (http://dtp.nci.nih.gov/). After treatment, cells were washed in 100 μl cold TBS (10 mM Tris, pH 7.4, 150 mM NaCl), then fixed for one hour at 4° C. with 190 μl per well of cold 3.7% formaldehyde in TBS as described previously (Stockwell, B. R. et al. Chem. Biol., 1999, 6:71-83). Membranes were permeabilized during a five-minute incubation in ice-cold methanol at 4° C. Cells were washed with 180 μl per well 3% milk in TBS then rocked overnight at 4° C. with 50 μl per well of 3% milk in TBS containing 1:1000 dilution of anti-phospho-STAT3 (P-Tyr 705; Cell Signaling Technology, Beverly, Mass.) and 1:2000 dilution of HRP-conjugated goat anti-rabbit IgG (Jackson ImmunoResearch, West Grove, Pa.). Antibodies were aspirated and then plates were washed twice with 180 μl per well TBS. […] Quantification of results was done using GS-700 scanning densitometer (Bio-Rad Laboratories, Hercules, Calif.).

Ras/NIH 3T3 tumors = assay: Antitumor activity, oncogenic Ras-transformed NIH 3T3 tumors in nude mice; type: in vivo; settings: 1 mg/kg/day i.p.
Excerpt: Antitumor Activity in the Nude Mouse Tumor Xenograft Model. Nude mice and C57 BL-6 black mice (National Cancer Institute, Bethesda, Md.) were maintained in accordance with the Institutional Animal Care and Use Committee (IACUC) procedures and guidelines. v-Src- and oncogenic H-Ras-transformed NIH 3T3, A549, MDA-MB-468 and Calu-1 cells were harvested, resuspended in PBS and injected s.c. into the right and left flank (10×10^6 cells per flank) of 8 week old female nude mice as reported previously (Sun, J. et al. Cancer Res., 1999, 59:4919-4926). Similarly, murine B16-F10 Melanoma cells were injected s.c. into the right and left flank (10^6 cells per flank) of C57 black mice. When tumors reached about 150 mm^3, animals were randomized (five animals per group; two tumors per animal) and dosed i.p. with 0.2 ml once daily. Control animals received DMSO (20%) vehicle whereas treated animals were injected with JSI-124 (1 mg/kg/day) in 20% DMSO in water. The tumor volumes were determined by measuring the length (l) and the width (w) and calculating the volume (V=1w^2/2) as described previously (Sun, J. et al. Cancer Res., 1999, 59:4919-4926). Statistical significance between control and treated animals were evaluated by using Student's t-test. […] Percent surviving mice was determined by monitoring the death of mice until all mice died. […]

Structure (SMILES): CC(C)(O)/C=C/C(=O)[C@](C)(O)[C@H]1[C@H](O)C[C@@]2(C)[C@@H]3CC=C4[C@@H](C=C(O)C(=O)C4(C)C)[C@]3(C)C(=O)C[C@]12C [JSI-124, cucurbitacin I]
- induction of STAT3-dependent pLucTKS3 luciferase reporter [1]: significantly suppresses
- edema at the subcutaneous site of injection (NCI Developmental Therapeutics Program) [2]: edema was observed at the subcutaneous site of injection
- phosphotyrosine STAT3 levels (cytoblot) (phosphotyrosine STAT3): reduced phosphotyrosine STAT3 to barely detectable levels
- growth of Ras/NIH 3T3 tumors (Ras/NIH 3T3 tumors): resistant
